Measurements from patent publication US9062041B2 (Bayer Intellectual Property GmbH, priority 2011, dated 2015).

Experiments:
Format in all cases: cell-based
human PGD receptor = target: T1, human PGD receptor (Homo sapiens, UniProt Q13258); assay: cAMP antagonism test on the human prostaglandin D receptor (HTRF cAMP detection); details: selectivity towards hDP, IC50 measured by cAMP antagonism test
T1 sequence (Q13258 1-359): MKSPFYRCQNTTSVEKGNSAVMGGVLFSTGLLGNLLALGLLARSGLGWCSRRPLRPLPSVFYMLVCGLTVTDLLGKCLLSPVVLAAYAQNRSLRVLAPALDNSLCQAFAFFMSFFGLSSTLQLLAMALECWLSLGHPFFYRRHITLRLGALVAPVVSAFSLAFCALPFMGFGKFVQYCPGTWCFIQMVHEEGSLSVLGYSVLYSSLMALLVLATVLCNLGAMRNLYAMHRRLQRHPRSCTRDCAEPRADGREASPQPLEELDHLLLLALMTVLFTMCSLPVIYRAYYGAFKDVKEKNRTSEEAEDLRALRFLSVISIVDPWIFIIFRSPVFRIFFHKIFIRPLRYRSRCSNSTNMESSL
In short: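 Cells pre-mixed with cAMP-d2 were preincubated with compound (0.8 nM–16.5 μM) for 20 min at RT, then stimulated with 3× PGD2 solution (6 nM, in PBS-IBMX) for 30 min at RT. After lysis (20 min), HTRF read at 665/620 nm; antagonism seen as rise in FRET ratio.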

[1] = target: EP4 subtype of the human PGE2 receptor (Homo sapiens, UniProt P35408); assay: cAMP antagonism test on the human EP4 receptor (HTRF cAMP detection); details: selectivity towards hEP4, IC50 measured by cAMP antagonism test
In short: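 Cells expressing human EP4 preincubated 20 min at RT with compound (0.8 nM–16.5 μM), then stimulated with PGE2 (0.3 nM in 3× solution, with IBMX) 60 min at RT. After lysis, cAMP measured by HTRF competition (665/620 nm ratio); antagonism seen as rise in FRET signal.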

[2] = target: EP2 subtype of the human PGE2 receptor (Homo sapiens, UniProt P43116); assay: cAMP antagonism test on the human EP2 receptor (HTRF cAMP detection); details: hEP2 receptor, read-out: Antagonism hEP2 IC50
In short: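 Cells expressing human EP2 preincubated 20 min at RT with compound (0.8 nM–16.5 μM), then stimulated 60 min with PGE2 (3× solution 1.5 nM) in PBS-IBMX. After 20 min lysis, cAMP measured by competitive HTRF with cAMP-d2 and Eu cryptate anti-cAMP antibody (665/620 nm ratio).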

Sequence of EP4 subtype of the human PGE2 receptor (P35408 whole entry): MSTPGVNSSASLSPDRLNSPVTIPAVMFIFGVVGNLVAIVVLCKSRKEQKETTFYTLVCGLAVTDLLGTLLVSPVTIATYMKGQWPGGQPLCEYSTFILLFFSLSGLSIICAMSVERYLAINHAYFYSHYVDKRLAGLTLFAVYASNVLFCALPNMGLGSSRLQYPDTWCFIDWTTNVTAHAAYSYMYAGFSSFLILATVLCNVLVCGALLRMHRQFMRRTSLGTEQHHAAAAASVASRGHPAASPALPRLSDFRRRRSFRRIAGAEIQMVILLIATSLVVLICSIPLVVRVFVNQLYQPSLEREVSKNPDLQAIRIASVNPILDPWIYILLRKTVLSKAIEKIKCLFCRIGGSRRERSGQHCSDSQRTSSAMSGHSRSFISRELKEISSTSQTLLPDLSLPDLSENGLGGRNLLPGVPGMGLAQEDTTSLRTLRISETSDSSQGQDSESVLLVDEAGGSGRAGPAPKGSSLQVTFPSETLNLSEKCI
Sequence of EP2 subtype of the human PGE2 receptor (P43116 whole entry): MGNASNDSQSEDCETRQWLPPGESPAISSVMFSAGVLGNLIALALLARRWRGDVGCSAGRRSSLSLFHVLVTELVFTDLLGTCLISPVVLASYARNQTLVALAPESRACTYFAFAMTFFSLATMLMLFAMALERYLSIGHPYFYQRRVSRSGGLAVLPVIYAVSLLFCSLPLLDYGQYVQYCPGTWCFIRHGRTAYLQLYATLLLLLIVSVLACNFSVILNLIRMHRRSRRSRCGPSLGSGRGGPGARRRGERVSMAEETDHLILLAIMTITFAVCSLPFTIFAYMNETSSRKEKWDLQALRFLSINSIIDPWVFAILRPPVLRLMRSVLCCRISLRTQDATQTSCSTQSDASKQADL

Selectivity hEP2/hDP (human PGD receptor) | Selectivity hEP2/hEP4 [1] | IC50 [2] | Compound
xxx (xxx > 100) | xxx (xxx > 100) | 12 nM | COCCNC(=O)c1ccc2nn(CC3CCN(C(=O)c4ccc(-c5ccc(Cl)cn5)cc4)CC3)cc2c1C [Example 368, 2-({1-[4-(5-chloropyridin-2-yl)benzoyl]piperidin-4-yl}methyl)-N-(2-methoxy-ethyl)-4-methyl-2H-indazol-5-carboxamide]
xxx (xxx > 100) | xxx (xxx > 100) | 3.16 nM | COCCNC(=O)c1ccc2nn(CC3CN(C(=O)c4cc5cc(OC)ccc5n4C)C3)cc2c1C [Example 172, N-(2-methoxyethyl)-2-({1-[(5-methoxy-1-methyl-1H-indol-2-yl)carbonyl]azetidin-3-yl}methyl)-4-methyl-2H-indazol-5-carboxamide]
xxx (xxx > 100) | xxx (xxx > 100) | 30.6 nM | Cc1c(C(=O)NCC2CCC2)ccc2nn(CC3CCN(C(=O)c4ccc(Cl)cc4)CC3)cc12 [Example 250, 2-{[1-(4-chlorobenzoyl)piperidin-4-yl]methyl}-N-(cyclobutylmethyl)-4-methyl-2H-indazol-5-carboxamide]
xx (xx: 10-100) | xx (xx: 10-100) | 460 nM | Cc1c(C(=O)NCC(F)(F)F)ccc2nn(CC3CCN(C(=O)c4nc5ccccc5n4C)CC3)cc12 [Example 297, 4-methyl-2-({1-[(1-methyl-1H-benzimidazol-2-yl)carbonyl]piperidin-4-yl}-methyl)-N-(2,2,2-trifluoroethyl)-2H-indazol-5-carboxamide]
xxx (xxx > 100) | xxx (xxx > 100) | 7.79 nM | Cc1c(C(=O)NCCS(C)(=O)=O)ccc2nn(CC3CCN(C(=O)c4ccc(Oc5ccc(C(F)(F)F)cc5)cc4)CC3)cc12 [Example 245, N-(2-mesylethyl)-4-methyl-2-[(1-{4-[4-(trifluoromethyl)phenoxy]benzoyl}-piperidin-4-yl)methyl]-2H-indazol-5-carboxamide]
xxx (xxx > 100) | xxx (xxx > 100) | 63.2 nM | Cc1cc2nn(CC3CN(C(=O)c4ccc(Cl)cc4)C3)cc2cc1C(=O)NCCOC(F)(F)F [Example 197, 2-{[1-(4-chlorobenzoyl)azetidin-3-yl]methyl}-6-methyl-N-[2-(trifluoromethoxy)ethyl]-2H-indazol-5-carboxamide]
xx (xx: 10-100) | xx (xx: 10-100) | 321 nM | Cc1c(C(=O)NCCN2CCOCC2)ccc2nn(CC3CCN(C(=O)c4ccc(-c5ccc(F)cc5)cc4)CC3)cc12 [Example 66, 2-({1-[(4′-fluoro-biphenyl-4-yl)-carbonyl]piperidin-4-yl}methyl)-4-methyl-N-(2-morpholino-ethyl)-2H-indazol-5-carboxamide]
xxx (xxx > 100) | xxx (xxx > 100) | 9.4 nM | Cc1c(C(=O)NCCOCC2CC2)ccc2nn(CC3CCN(C(=O)c4ccc(C5CC5)cc4)CC3)cc12 [Example 89, 2-{[1-(4-cyclopropyl-benzoyl)piperidin-4-yl]methyl}-N-[2-(cyclopropylmethoxy)ethyl]-4-methyl-2H-indazol-5-carboxamide]
xxx (xxx > 100) | xxx (xxx > 100) | 3.67 nM | COCCNC(=O)c1ccc2nn(CC3CCN(C(=O)c4ccc(Oc5ccc(Cl)cc5)cc4)CC3)cc2c1C [Example 14, 2-({1-[4-(4-chloro-phenoxy)benzoyl]-piperidin-4-yl}-methyl)-N-(2-methoxyethyl)-4-methyl-2H-indazol-5-carboxamide]
xxx (xxx > 100) | xxx (xxx > 100) | 77.8 nM | Cc1c(C(=O)NCC(F)(F)F)ccc2nn(CC3CCN(C(=O)c4ccc(OC(F)(F)F)cc4)CC3)cc12 [Example 73, 4-methyl-N-(2,2,2-trifluoroethyl)-2-({1-[4-(trifluoromethoxy)benzoyl]piperidin-4-yl}methyl)-2H-indazol-5-carboxamide]
xx (xx: 10-100) | xx (xx: 10-100) | 1050 nM | Cc1c(C(=O)NCC(F)(F)F)ccc2nn(CC3CCN(C(=O)c4ccc(N5CCOCC5)cc4)CC3)cc12 [Example 287, 4-methyl-2-{[1-(4-morpholinobenzoyl)piperidin-4-yl]methyl}-N-(2,2,2-trifluoro-ethyl)-2H-indazol-5-carboxamide]
xxx (xxx > 100) | xxx (xxx > 100) | 42.4 nM | COCCNC(=O)c1ccc2nn(CC3CCN(C(=O)c4ccc(Oc5cccnc5)cc4)CC3)cc2c1C [Example 343, N-(2-methoxyethyl)-4-methyl-2-({1-[4-(3-pyridyloxy)benzoyl]piperidin-4-yl}methyl)-2H-indazol-5-carboxamide]
xxx (xxx > 100) | xxx (xxx > 100) | 15.1 nM | COCCNC(=O)c1ccc2nn(CC3CCN(C(=O)c4ccc(OC(C)C)cc4F)CC3)cc2c1C [Example 362, 2-{[1-(2-fluoro-4-isopropoxybenzoyl)piperidin-4-yl]methyl}-N-(2-methoxy-ethyl)-4-methyl-2H-indazol-5-carboxamide]
xxx (xxx > 100) | xxx (xxx > 100) | 4.17 nM | COCCNC(=O)c1ccc2nn(CC3CCN(C(=O)c4ccc(Oc5ccc(C)cc5)cc4)CC3)cc2c1C [Example 15, N-(2-methoxyethyl)-4-methyl-2-({1-[4-(4-methylphenoxy)-benzoyl]piperidin-4-yl}methyl)-2H-indazol-5-carboxamide]
xxx (xxx > 100) | xxx (xxx > 100) | 39.7 nM | COCCNC(=O)c1ccc2nn(CC3CCN(C(=O)c4ccc(Oc5ccc(F)cc5)cc4)CC3)cc2c1OCC(F)(F)F [Example 233, 2-({1-[4-(4-fluorophenoxy)benzoyl]piperidin-4-yl}methyl)-N-(2-methoxyethyl)-4-(2,2,2-trifluoroethoxy)-2H-indazol-5-carboxamide]
xxx (xxx > 100) | xxx (xxx > 100) | 4.91 nM | COCCNC(=O)c1ccc2nn(CC3CCN(C(=O)c4ccc(-c5ccccc5OC(F)(F)F)cc4F)CC3)cc2c1C [Example 46, 2-[(1-{[3-fluoro-2′-(trifluoromethoxy)-biphenyl-4-yl]-carbonyl}piperidin-4-yl)methyl]-N-(2-methoxyethyl)-4-methyl-2H-indazol-5-carboxamide]
xxx (xxx > 100) | xxx (xxx > 100) | 100 nM | Cc1ccc(Oc2ccc(C(=O)N3CCC(Cn4cc5c(C)c(C(=O)NCC(F)(F)F)ccc5n4)CC3)cc2)cc1 [Example 285, 4-methyl-2-({1-[4-(4-methylphenoxy)benzoyl]piperidin-4-yl}methyl)-N-(2,2,2-trifluoroethyl)-2H-indazol-5-carboxamide]
xxx (xxx > 100) | xxx (xxx > 100) | 5.39 nM | COCCNC(=O)c1ccc2nn(CC3CCN(C(=O)c4ccc(Oc5cccc(C(F)(F)F)c5)cc4)CC3)cc2c1C [Example 355, N-(2-methoxyethyl)-4-methyl-2-[(1-{4-[3-(trifluoromethyl)phenoxy]benzoyl}-piperidin-4-yl)methyl]-2H-indazol-5-carboxamide]
xxx (xxx > 100) | xxx (xxx > 100) | 4.82 nM | COCCNC(=O)c1ccc2nn(CC3CCN(C(=O)c4ccc(-c5ccc(OC)cc5)cc4F)CC3)cc2c1C [Example 43, 2-({1-[(3-fluoro-4′-methoxybiphenyl-4-yl)carbonyl]piperidin-4-yl}methyl)-N-(2-methoxyethyl)-4-methyl-2H-indazol-5-carboxamide]
xxx (xxx > 100) | xxx (xxx > 100) | 37.8 nM | Cc1c(C(=O)NCC2COCCO2)ccc2nn(CC3CCN(C(=O)c4ccc(Cl)cc4)CC3)cc12 (racemic) [Example 413, (+/−)-2-{[1-(4-chlorobenzoyl)piperidin-4-yl]methyl}-N-(1,4-dioxan-2-ylmethyl)-4-methyl-2H-indazol-5-carboxamide]

Compound | Selectivity hEP2/hDP (human PGD receptor) | Selectivity hEP2/hEP4 [1] | IC50 [2]
Cc1c(C(=O)NCCOC(C)(C)C)ccc2nn(CC3CCN(C(=O)c4ccc(Cl)cc4)CC3)cc12 [Example 111, N-(2-tert-butoxyethyl)-2-{[1-(4-chlorobenzoyl)piperidin-4-yl]methyl}-4-methyl-2H-indazol-5-carboxamide] | xxx (xxx > 100) | xxx (xxx > 100) | 13.7 nM
